Experimental data reported in patent US5723439A (priority 1991, dated 1998).

Test system: influenza A/Aichi/2/68 (H3N2) virus
Format: in vivo, mice
Conditions: intraperitoneal 15,000 KIU/mouse/day, 5-6 injections daily for 7 days

aprotinin
protective effect (survival): 30%
